Tests used:
[1] = tested on: persian speedwell; test: Test Example 5: herbicidal effect by foliage application, plastic box (Table 20, symbol R); type: in vivo, Persian speedwell (Veronica persica); conditions: foliage application; for R: persian speedwell, herbicidal effect (criteria 0-5): AAH 320 g/ha, evaluated three weeks after application
Procedure, shortened: (§1)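 Plants were sown into sterilized diluvial soil under about 1.5 cm cover and kept in a greenhouse at 25° C. to 30° C. Fourteen days on, foliage received an even spray of the diluted emulsion. Herbicidal or crop effect was judged three weeks afterwards.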

[2] = tested on: oval-leafed pondweed; test: Test Example 1: herbicidal activity, application before weed generation under submerged conditions (Table 16, symbol C); type: in vivo, oval-leafed pondweed (Monochoria vaginalis); conditions: 320 g/ha applied herbicide
Procedure, shortened: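 Alluvial soil was flooded to 4 cm depth, weed seeds were sown mixed and 2.5-leaf rice seedlings were transplanted. On sowing day, the compound's emulsion, diluted in water to a set dose, was applied to the water surface. Plants grew at 25–30 °C and were scored 0–5 after three weeks.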

[3] = tested on: windgrass; test: Test Example 5: herbicidal effect by foliage application, plastic box (Table 20, symbol L); type: in vivo, windgrass (Apera spica-venti); conditions: foliage application; for L: windgrass, herbicidal effect (criteria 0-5): AAH 320 g/ha, evaluated three weeks after application
Procedure, shortened: as §1

[4] = tested on: blackgrass; test: Test Example 4: herbicidal effect by soil treatment (Table 19, symbol J); type: in vivo, blackgrass (Alopecurus myosuroides); conditions: amount of applied herbicide 320 g/ha
Procedure, shortened: (§2)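 In this soil treatment, the formulated compound reached the seeds only through the soil: seeds were buried about 1.5 cm deep in sterilized diluvial soil, then the diluted emulsion was sprayed over the surface. After three weeks at 25° C. to 30° C. in a greenhouse, effects were graded on criteria from an earlier test.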

[5] = tested on: chickweed; test: Test Example 5: herbicidal effect by foliage application, plastic box (Table 20, symbol P); type: in vivo, common chickweed (Stellaria media); conditions: foliage application; for P: chickweed, herbicidal effect (criteria 0-5): AAH 320 g/ha, evaluated three weeks after application
Procedure, shortened: as §1

[6] = tested on: lambsquarters; test: Test Example 5: herbicidal effect by foliage application, plastic box (Table 20, symbol O); type: in vivo, lambsquarters (Chenopodium album); conditions: foliage application; for O: lambsquarters, herbicidal effect (criteria 0-5): AAH 320 g/ha, evaluated three weeks after application
Procedure, shortened: as §1

[7] = tested on: redroot pigweed; test: Test Example 4: herbicidal effect by soil treatment (Table 19, symbol N); type: in vivo, redroot pigweed (Amaranthus retroflexus); conditions: amount of applied herbicide 320 g/ha
Procedure, shortened: as §2

[8] = tested on: Japanese bulrush; test: Test Example 2: herbicidal activity, application during weed generation under submerged conditions (Table 17, symbol B); type: in vivo, Japanese bulrush (Schoenoplectus juncoides); conditions: AAH 320 g/ha; application during weed generation, submerged conditions
Procedure, shortened: (§3)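 Mixed weed seedlings in alluvial soil under a 4 cm water layer, greenhouse-grown at 25–30° C. Compound given as a diluted emulsion into the floodwater at the 1–2 leaf stage; response graded after three weeks.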

[9] = tested on: redroot pigweed; test: Test Example 5: herbicidal effect by foliage application, plastic box (Table 20, symbol N); type: in vivo, redroot pigweed (Amaranthus retroflexus); conditions: foliage application; for N: redroot pigweed, herbicidal effect (criteria 0-5): AAH 320 g/ha, evaluated three weeks after application
Procedure, shortened: as §1

[10] = tested on: velvetleaf; test: Test Example 4: herbicidal effect by soil treatment (Table 19, symbol M); type: in vivo, velvetleaf (Abutilon theophrasti); conditions: amount of applied herbicide 320 g/ha
Procedure, shortened: as §2

[11] = tested on: green foxtail; test: Test Example 4: herbicidal effect by soil treatment (Table 19, symbol G); type: in vivo, green foxtail (Setaria viridis); conditions: amount of applied herbicide 320 g/ha
Procedure, shortened: as §2

[12] = tested on: barnyard grass; test: Test Example 4: herbicidal effect by soil treatment (Table 19, symbol H); type: in vivo, barnyard grass (Echinochloa crus-galli); conditions: amount of applied herbicide 320 g/ha
Procedure, shortened: as §2

[13] = tested on: southern crabgrass; test: Test Example 5: herbicidal effect by foliage application, plastic box (Table 20, symbol F); type: in vivo, southern crabgrass (Digitaria ciliaris); conditions: foliage application; for F: southern crabgrass, herbicidal effect (criteria 0-5): AAH 320 g/ha, evaluated three weeks after application
Procedure, shortened: as §1

[14] = tested on: oval-leafed pondweed; test: Test Example 2: herbicidal activity, application during weed generation under submerged conditions (Table 17, symbol C); type: in vivo, oval-leafed pondweed (Monochoria vaginalis); conditions: AAH 320 g/ha; application during weed generation, submerged conditions
Procedure, shortened: as §3

[15] = tested on: barnyard grass; test: Test Example 3: herbicidal effect by foliage application, Wagner pot (Table 18, symbol H); type: in vivo, barnyard grass (Echinochloa crus-galli); conditions: for herbicidal effect on H: barnyard grass: amount of applied herbicide 320 g/ha
Procedure, shortened: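 Plants were sown in alluvial soil held under 0.1–0.5 cm standing water and grown 14 days in a greenhouse at 25–30 °C. An emulsifiable formulation, water-diluted to the set dose, was then sprayed onto the foliage, and effects were scored three weeks later using previously defined criteria.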

[16] = tested on: persian speedwell; test: Test Example 4: herbicidal effect by soil treatment (Table 19, symbol R); type: in vivo, Persian speedwell (Veronica persica); conditions: amount of applied herbicide 320 g/ha
Procedure, shortened: as §2

[17] = 320 g/ha, three weeks after application

SMILES | Herbicidal effect on C: oval-leafed pondweed (grade 0-5) [2] | herbicidal effect rating, B: Japanese bulrush [8] | herbicidal effect rating, C: oval-leafed pondweed [14] | R: persian speedwell, herbicidal effect (criteria 0-5) [1] | L: windgrass, herbicidal effect (criteria 0-5) [3] | P: chickweed, herbicidal effect (criteria 0-5) [5] | O: lambsquarters, herbicidal effect (criteria 0-5) [6] | herbicidal effect on N: redroot pigweed [7] | N: redroot pigweed, herbicidal effect (criteria 0-5) [9] | herbicidal effect on M: velvetleaf [10] | herbicidal effect on G: green foxtail [11] | herbicidal effect on H: barnyard grass [12] | F: southern crabgrass, herbicidal effect (criteria 0-5) [13] | herbicidal effect on H: barnyard grass [15] | other results
CC(=O)c1ccc(-c2sc3ccccc3c2-c2c(O)c(C)nn(C)c2=O)cc1 [1-041] | 4 (Herbicidal rate of 70% or more and less than 90%) | 3 (Herbicidal rate of 40% or more and less than 70%) | 3 (Herbicidal rate of 40% or more and less than 70%) | – | – | – | – | – | – | – | – | – | – | – | herbicidal effect grade, R: persian speedwell [1, 17]: 5 (Herbicidal rate of 90% or more (almost completely withered)); herbicidal effect grade, L: windgrass [3, 17]: 4 (Herbicidal rate of 70% or more and less than 90%); herbicidal effect rating, J: blackgrass [4]: 0 (Herbicidal rate of 5% or less (almost no effect)); herbicidal effect grade, P: chickweed [5, 17]: 5 (Herbicidal rate of 90% or more (almost completely withered)); herbicidal effect grade, O: lambsquarters [6, 17]: 3 (Herbicidal rate of 40% or more and less than 70%); herbicidal effect rating, N: redroot pigweed [7]: 4 (Herbicidal rate of 70% or more and less than 90%); herbicidal effect grade, N: redroot pigweed [9, 17]: 5 (Herbicidal rate of 90% or more (almost completely withered)); herbicidal effect rating, M: velvetleaf [10]: 3 (Herbicidal rate of 40% or more and less than 70%); herbicidal effect rating, G: green foxtail [11]: 3 (Herbicidal rate of 40% or more and less than 70%); herbicidal effect rating, H: barnyard grass [12]: 0 (Herbicidal rate of 5% or less (almost no effect)); herbicidal effect grade, F: southern crabgrass [13, 17]: 4 (Herbicidal rate of 70% or more and less than 90%); herbicidal effect on H (barnyard grass), rating 0-5 ([15]; 320 g/ha): 1 (Herbicidal rate of 5% or more and less than 20%)
Cc1nn(C)c(=O)c(-c2c(-c3ccc(OC(F)F)cc3)sc3ccc(F)cc23)c1OC(=O)c1ccco1 [2-287] | 4 (Herbicidal rate of 70% or more and less than 90%) | 3 (Herbicidal rate of 40% or more and less than 70%) | 4 (Herbicidal rate of 70% or more and less than 90%) | 5 (Herbicidal rate of 90% or more (almost completely withered)) | 4 (Herbicidal rate of 70% or more and less than 90%) | 5 (Herbicidal rate of 90% or more (almost completely withered)) | 5 (Herbicidal rate of 90% or more (almost completely withered)) | 5 (Herbicidal rate of 90% or more (almost completely withered)) | 5 (Herbicidal rate of 90% or more (almost completely withered)) | 5 (Herbicidal rate of 90% or more (almost completely withered)) | 5 (Herbicidal rate of 90% or more (almost completely withered)) | 5 (Herbicidal rate of 90% or more (almost completely withered)) | 5 (Herbicidal rate of 90% or more (almost completely withered)) | 5 (Herbicidal rate of 90% or more (almost completely withered)) | herbicidal effect on R: persian speedwell [16]: 5 (Herbicidal rate of 90% or more (almost completely withered))
Cc1nn(C)c(=O)c(-c2c(-c3ccc(O)cc3)sc3ccc(F)cc23)c1O [2-337] | 3 (Herbicidal rate of 40% or more and less than 70%) | 2 (Herbicidal rate of 20% or more and less than 40%) | 0 (Herbicidal rate of 5% or less (almost no effect)) | 5 (Herbicidal rate of 90% or more (almost completely withered)) | 0 (Herbicidal rate of 5% or less (almost no effect)) | 5 (Herbicidal rate of 90% or more (almost completely withered)) | 3 (Herbicidal rate of 40% or more and less than 70%) | 0 (Herbicidal rate of 5% or less (almost no effect)) | 4 (Herbicidal rate of 70% or more and less than 90%) | 0 (Herbicidal rate of 5% or less (almost no effect)) | 0 (Herbicidal rate of 5% or less (almost no effect)) | 0 (Herbicidal rate of 5% or less (almost no effect)) | 0 (Herbicidal rate of 5% or less (almost no effect)) | 3 (Herbicidal rate of 40% or more and less than 70%) | herbicidal effect on J: blackgrass [4]: 0 (Herbicidal rate of 5% or less (almost no effect))

— patent US20230085307A1, “PYRIDAZINONE COMPOUND AND HERBICIDE” (NISSAN CHEMICAL CORPORATION, priority 2019, published 2023)
